Data from PubChem BioAssay (NCI).
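All cell lines were grown in 96-well plates and treated with compound for 48 hours. The concentration for 50% growth inhibition is given as GI50. TGI: concentration producing complete growth inhibition.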

Assays:
Test in all cases: NCI tumour cell line growth inhibition, 48 h
786-0 renal = tested on: 786-0 renal
A498 renal = tested on: A498 renal
A549 NSCLC = tested on: A549 NSCLC
ACHN renal = tested on: ACHN renal
CAKI-1 renal = tested on: CAKI-1 renal
CCRF-CEM leukemia = tested on: CCRF-CEM leukemia
COLO 205 colon = tested on: COLO 205 colon
DLD-1 colon = tested on: DLD-1 colon
DMS 114 small cell lung = tested on: DMS 114 small cell lung
DMS 273 small cell lung = tested on: DMS 273 small cell lung
EKVX NSCLC = tested on: EKVX NSCLC
HCC-2998 colon = tested on: HCC-2998 colon
HCT-116 colon = tested on: HCT-116 colon
HCT-15 colon = tested on: HCT-15 colon
HL-60(TB) leukemia = tested on: HL-60(TB) leukemia
HOP-18 NSCLC = tested on: HOP-18 NSCLC
HOP-62 NSCLC = tested on: HOP-62 NSCLC
HOP-92 NSCLC = tested on: HOP-92 NSCLC
HT29 colon = tested on: HT29 colon
IGROV1 ovarian = tested on: IGROV1 ovarian
K-562 leukemia = tested on: K-562 leukemia
KM12 colon = tested on: KM12 colon
KM20L2 colon = tested on: KM20L2 colon
LOX IMVI melanoma = tested on: LOX IMVI melanoma
LXFL 529 NSCLC = tested on: LXFL 529 NSCLC
M14 melanoma = tested on: M14 melanoma
MALME-3M melanoma = tested on: MALME-3M melanoma
NCI-H23 lung = tested on: NCI-H23 lung
NCI-H460 lung = tested on: NCI-H460 lung
NCI-H522 lung = tested on: NCI-H522 lung
OVCAR-3 ovarian = tested on: OVCAR-3 ovarian
OVCAR-5 ovarian = tested on: OVCAR-5 ovarian
OVCAR-8 ovarian = tested on: OVCAR-8 ovarian
RPMI-8226 leukemia = tested on: RPMI-8226 leukemia
SF-268 CNS = tested on: SF-268 CNS
SF-295 CNS = tested on: SF-295 CNS
SF-539 CNS = tested on: SF-539 CNS
SK-MEL-2 melanoma = tested on: SK-MEL-2 melanoma
SK-MEL-28 melanoma = tested on: SK-MEL-28 melanoma
SK-MEL-5 melanoma = tested on: SK-MEL-5 melanoma
SK-OV-3 ovarian = tested on: SK-OV-3 ovarian
SNB-19 CNS = tested on: SNB-19 CNS
SNB-75 CNS = tested on: SNB-75 CNS
SNB-78 CNS = tested on: SNB-78 CNS
SW-620 colon = tested on: SW-620 colon
TK-10 renal = tested on: TK-10 renal
U251 CNS = tested on: U251 CNS
UACC-257 melanoma = tested on: UACC-257 melanoma
UACC-62 melanoma = tested on: UACC-62 melanoma
UO-31 renal = tested on: UO-31 renal

Q: What does the source list for `O=[N+]([O-])[O-].O=[N+]([O-])[O-].[Au].[Au].c1ccc([P-]c2ccccc2)cc1.c1ccc([P-]c2ccccc2)cc1`?
A: GI50 (786-0 renal): 19.2 µM; TGI (786-0 renal): 58.7 µM; GI50 (A498 renal): > 100 µM; TGI (A498 renal): > 100 µM; GI50 (A549 NSCLC): 84 µM; TGI (A549 NSCLC): > 100 µM; GI50 (ACHN renal): 17 µM; TGI (ACHN renal): 33.9 µM; GI50 (CAKI-1 renal): 26.9 µM; TGI (CAKI-1 renal): 52.7 µM; GI50 (CCRF-CEM leukemia): 18.8 µM; TGI (CCRF-CEM leukemia): > 100 µM; GI50 (COLO 205 colon): 28 µM; TGI (COLO 205 colon): > 100 µM; GI50 (DLD-1 colon): 47 µM; TGI (DLD-1 colon): > 100 µM; GI50 (DMS 114 small cell lung): 37.5 µM; TGI (DMS 114 small cell lung): > 100 µM; GI50 (DMS 273 small cell lung): 39.2 µM; TGI (DMS 273 small cell lung): > 100 µM; GI50 (EKVX NSCLC): 33.4 µM; TGI (EKVX NSCLC): 63 µM; GI50 (HCC-2998 colon): 71.8 µM; TGI (HCC-2998 colon): > 100 µM; GI50 (HCT-116 colon): 44.2 µM; TGI (HCT-116 colon): > 100 µM; GI50 (HCT-15 colon): 27 µM; TGI (HCT-15 colon): > 100 µM; GI50 (HL-60(TB) leukemia): 12 µM; TGI (HL-60(TB) leukemia): > 100 µM; GI50 (HOP-18 NSCLC): 18.5 µM; TGI (HOP-18 NSCLC): 37.6 µM; GI50 (HOP-62 NSCLC): > 100 µM; TGI (HOP-62 NSCLC): > 100 µM; GI50 (HOP-92 NSCLC): 26.6 µM; TGI (HOP-92 NSCLC): 51.5 µM; GI50 (HT29 colon): 71.3 µM; TGI (HT29 colon): > 100 µM; GI50 (IGROV1 ovarian): 46.2 µM; TGI (IGROV1 ovarian): > 100 µM; GI50 (K-562 leukemia): 23.6 µM; TGI (K-562 leukemia): > 100 µM; GI50 (KM12 colon): 46.3 µM; TGI (KM12 colon): > 100 µM; GI50 (KM20L2 colon): 36.4 µM; TGI (KM20L2 colon): > 100 µM; GI50 (LOX IMVI melanoma): 35.3 µM; TGI (LOX IMVI melanoma): > 100 µM; GI50 (LXFL 529 NSCLC): 14.2 µM; TGI (LXFL 529 NSCLC): 32.7 µM; GI50 (M14 melanoma): 22.6 µM; TGI (M14 melanoma): 52.9 µM; GI50 (MALME-3M melanoma): 19.8 µM; TGI (MALME-3M melanoma): 47 µM; GI50 (NCI-H23 lung): 36 µM; TGI (NCI-H23 lung): > 100 µM; GI50 (NCI-H460 lung): 20.4 µM; TGI (NCI-H460 lung): > 100 µM; GI50 (NCI-H522 lung): 3.64 µM; TGI (NCI-H522 lung): 46.3 µM; GI50 (OVCAR-3 ovarian): 26.4 µM; TGI (OVCAR-3 ovarian): 55.4 µM; GI50 (OVCAR-5 ovarian): > 100 µM; TGI (OVCAR-5 ovarian): > 100 µM; GI50 (OVCAR-8 ovarian): 35.3 µM; TGI (OVCAR-8 ovarian): > 100 µM; GI50 (RPMI-8226 leukemia): 14.3 µM; TGI (RPMI-8226 leukemia): > 100 µM; GI50 (SF-268 CNS): 65.1 µM; TGI (SF-268 CNS): > 100 µM; GI50 (SF-295 CNS): > 100 µM; TGI (SF-295 CNS): > 100 µM; GI50 (SF-539 CNS): 43.9 µM; TGI (SF-539 CNS): 77.7 µM; GI50 (SK-MEL-2 melanoma): 31.1 µM; TGI (SK-MEL-2 melanoma): 58.1 µM; GI50 (SK-MEL-28 melanoma): 29.3 µM; TGI (SK-MEL-28 melanoma): 75.6 µM; GI50 (SK-MEL-5 melanoma): 34.1 µM; TGI (SK-MEL-5 melanoma): 88.8 µM; GI50 (SK-OV-3 ovarian): > 100 µM; TGI (SK-OV-3 ovarian): > 100 µM; GI50 (SNB-19 CNS): > 100 µM; TGI (SNB-19 CNS): > 100 µM; GI50 (SNB-75 CNS): 51.4 µM; TGI (SNB-75 CNS): > 100 µM; GI50 (SNB-78 CNS): 61 µM; TGI (SNB-78 CNS): > 100 µM; GI50 (SW-620 colon): 38.7 µM; TGI (SW-620 colon): > 100 µM; GI50 (TK-10 renal): 23.3 µM; TGI (TK-10 renal): 53.6 µM; GI50 (U251 CNS): 36.6 µM; TGI (U251 CNS): > 100 µM; GI50 (UACC-257 melanoma): 26.3 µM; TGI (UACC-257 melanoma): 62.7 µM; GI50 (UACC-62 melanoma): 30 µM; TGI (UACC-62 melanoma): 65.3 µM; GI50 (UO-31 renal): 25.9 µM; TGI (UO-31 renal): 47.5 µM
